In general, logP refers to the decadic logarithm of the partition coefficient of the neutral form, usually between octanol and water. A lower logP goes with lower lipophilicity.

This data set in a line: method code SF, from DOI: 10.1021/jf00121a034.
For the compound `CON(C)C(=O)Nc1ccc(OCC(=O)C23CC4CC(C2)C4C3)c(Cl)c1` (configuration not stated), the logP was determined as 4.48.

In turn, `CON(C)C(=O)Nc1cccc(C(C)(C)C)c1` yielded a logP of 3.21.

In the case of `CCCCc1cccc(NC(=O)N(C)C)c1`, the logP came to 3.23.

Consider `CON(C)C(=O)Nc1ccc(F)cc1`, for which the logP was 1.46.

Turning to `CON(C)C(=O)Nc1ccccc1`, the logP is 1.29.

`CON(C)C(=O)Nc1ccc(CCCc2ccccc2)cc1` yielded a log partition coefficient (logP) of 4.67.

Regarding `CON(C)C(=O)Nc1cccc(CO)c1`, the logP worked out at 0.62.

For the compound `CON(C)C(=O)Nc1ccc(C2CCCCC2)cc1`, the logP came out at 4.08.

In the case of `CON(C)C(=O)Nc1ccc(N)cc1`, the logP was -0.16.

As for `CON(C)C(=O)Nc1ccc(C(C)=O)cc1`, the logP is 1.22.

Regarding `CC(C)c1ccc(NC(=O)N(C)C)cc1`, the logP is 2.87.

As to `CON(C)C(=O)Nc1ccc(C(C)C)cc1`, the logP was found to be 2.95.

`CON(C)C(=O)Nc1ccc(CCCc2ccc(Cl)cc2)cc1` registered a logP of 5.35.

With `CON(C)C(=O)Nc1ccc(CCCc2ccc(-c3ccccc3)cc2)cc1`, the logP was 6.54.

The compound `CON(C)C(=O)Nc1ccc(OCc2ccccc2)cc1` had a logP of 3.11.

In turn, `CON(C)C(=O)Nc1cccc(OCCCCOc2ccccc2)c1` gave a logP of 3.86.

In turn, `CCNc1ccc(NC(=O)N(C)OC)cc1` came in with a logP of 0.83.

Turning to `CON(C)C(=O)Nc1cccc(OCC(=O)C23CC4CC(CC(C4)C2)C3)c1`, the logP was found to be 3.79.

In the case of `CC(=O)c1cccc(NC(=O)N(C)C)c1`, the logP worked out at 0.95.

Take `CN(C)C(=O)Nc1cccc(N)c1`: the logP is -0.1.

Consider `CON(C)C(=O)Nc1cccc([N+](=O)[O-])c1`, for which the logP is 1.64.

The compound `CN(C)C(=O)Nc1cccc(OCCc2ccccc2)c1` registered a logP of 3.39.

With `CON(C)C(=O)Nc1ccc(OCCc2cccc3ccccc23)cc1`, the logP was 4.81.

With `CON(C)C(=O)Nc1ccc(OCC(=O)C23CC4CC(CC(C4)C2)C3)cc1`, the logP was found to be 3.53.

In turn, `CN(C)C(=O)Nc1cccc(O)c1` yielded a logP of 0.51.

As for `CON(C)C(=O)Nc1ccc(OCCCCOc2ccccc2)cc1`, the logP worked out at 3.86.

Compound `CN(C)C(=O)Nc1ccc(C(=O)c2ccccc2)cc1` displayed a logP of 2.59.

`CON(C)C(=O)Nc1cccc(F)c1`: the logP amounted to 1.68.

The compound `CN(C)C(=O)Nc1ccc(C2CCCCC2)cc1` showed a logP of 3.83.

Compound `CN(C)C(=O)Nc1cccc([N+](=O)[O-])c1` yielded a logP of 1.46.

For `CON(C)C(=O)Nc1ccc(OCCc2ccc(C)cc2)cc1`, the logP was 3.81.

`CON(C)C(=O)Nc1ccc(CCCCc2ccccc2)cc1` yielded a logP of 5.15.

The compound `CON(C)C(=O)Nc1ccc(OCCC2CCCCC2)cc1` displayed a logP of 4.46.

The compound `CON(C)C(=O)Nc1ccc(C=C(C#N)C#N)cc1` came in with a logP of 2.19.

Compound `CON(C)C(=O)Nc1ccc([N+](=O)[O-])cc1` displayed a logP of 1.74.

`CON(C)C(=O)Nc1cccc(O)c1` showed a logP of 0.82.

In the case of `CON(C)C(=O)Nc1ccc(NS(C)(=O)=O)cc1`, the logP is 0.14.

As to `CON(C)C(=O)Nc1ccc(C(=O)c2ccccc2)cc1`, the logP is 2.86.

Take `CCOC(=O)c1ccc(NC(=O)N(C)OC)cc1`: the logP turned out to be 2.24.

With `CON(C)C(=O)Nc1ccc(OC(C)CC2CCCCC2)cc1` (configuration not stated), the logP was 4.51.

In the case of `CON(C)C(=O)Nc1cccc(C(F)(F)F)c1`, the logP came to 2.64.

In turn, `CCCCCCCCCCCCOc1ccc(NC(=O)N(C)C)cc1` registered a logP of 6.93.

The values are drawn from the SangsterLogP compilation.
